Data on eleven compounds can be found in PMC11544713, “The Application of Untargeted Metabolomic Approaches for the Search of Common Bioavailable Metabolites in Human Plasma Samples from Lippia citriodora and Olea europaea Extracts” (Journal of Agricultural and Food Chemistry, 2024).

Data set [1] in a line: Acute intervention: nutrikinetics of plasma metabolites after ingestion of L. citriodora extract (untargeted HPLC-ESI-QTOF-MS). Here is the method: (§1) A total of 25 healthy individuals participated, with an average age of 27 ± 9 years and a mean body mass index (BMI) of 23 ± 3 kg/m^2. None of the participants were taking any medications or nutritional supplements nor did they have any chronic diseases or gastrointestinal issues. The sample size was established based on findings from previous bioavailability research.[14] All participants provided informed consent before participating in the study.
(§2) The intervention study was carried out at Miguel Hernández University. Following an overnight fast, the volunteers were categorized into the subsequent groups: a subgroup to evaluate the LC leaf extract (n = 8), another for the OE leaf extract (n = 8), and the placebo subgroup (n = 9). This was a double-blind study, in which sample collection and treatment were carried out uniformly across all three subgroups.
(§3) Water was provided ad libitum. Prior to the ingestion of the capsule, a nurse inserted a cannula into the ulnar vein of each volunteer’s nondominant arm, and blood samples were drawn into EDTA-coated tubes at baseline (t = 0). Blood samples were then collected at 0.5, 1, 2, 4, 6, 8, and 10 h after the consumption of the 500 mg capsule. Plasma was separated through centrifugation (10 min at 3000 rpm and 4 °C) and stored at −80 °C until further analysis.
(§4) Plasma samples were initially treated using a mixture of methanol and ethanol (50:50; v:v) to remove proteins, following previously reported protocols.[19] During the sample treatment, pooled quality controls (pooled-QC) were prepared by combining equal aliquots from each sample. These QC samples were processed by using the same protocols as the experimental biological samples.
(§5) A reversed-phase analytical C18 column (Agilent Zorbax Eclipse Plus, 1.8 μm, 4.6 × 150 mm^2) with a protective cartridge with the same packing was used. MS data were acquired in negative ionization mode, operating in full scan across a mass-to-charge ratio (m/z) range of 50–1700. The analytical method used was adapted from that described by Villegas-Aguilar et al.[19]
(§6) Metabolite nutrikinetics were studied using PKSolver, an add-in program for pharmacokinetic data analysis in Microsoft Excel. The time to reach the maximum concentration (observed Tmax) was calculated for each significant metabolite. As an untargeted metabolomic approach was used to detect the circulating metabolites, these were not quantified. Therefore, the maximum concentration (Cmax) and area under the curve (AUC) parameters were calculated in a relative way by using the deconvoluted chromatographic areas. […] Statistical differences were determined by unpaired t tests. All p values less than 0.05 were considered statistically significant.

Data set [2] in a line: Acute intervention: nutrikinetics of plasma metabolites after ingestion of O. europaea extract (untargeted HPLC-ESI-QTOF-MS). Here is the method:
as §1, §2, §3, §4, §5, §6

The mark [3] stands for this setting: 0.5 h after L. citriodora extract.
The mark [4] stands for this setting: 1 h after L. citriodora extract.
Setting [5] is: 2 h after L. citriodora extract.
The mark [6] stands for this setting: 4 h after L. citriodora extract.
Where [7] appears, read: 6 h after L. citriodora extract.
Setting [8] is: 8 h after L. citriodora extract.
[9] abbreviates: 10 h after L. citriodora extract.
The mark [10] stands for this setting: human plasma, 500 mg capsule of L. citriodora (LC) extract, oral, mean ± SD.
The mark [11] stands for this setting: human plasma, 500 mg capsule of O. europaea (OE) extract, oral, mean ± SD.
Where [12] appears, read: 0.5 h after O. europaea extract.

As to `CC1=CC(=O)CC(C)(C)C1(O)/C=C/C(C)=C/COC1OC(CO)C(O)C(O)C1O` (single isomer, unassigned; isomer 1) [abscisic alcohol 11-glucoside isomer 1, abscisic alcohol 11-glucoside], the “mean chromatographic area in plasma, T0.5” value in data set [1] (setting [3]) came out at 50. Further, the “mean chromatographic area in plasma, T1” value in data set [1] (setting [4]) was found to be 188. Further, the “mean chromatographic area in plasma, T2” value in data set [1] (setting [5]) is listed as 61. Moreover, the “mean chromatographic area in plasma, T4” value in data set [1] (setting [6]) turned out to be 0. The “mean chromatographic area in plasma, T6” value in data set [1] (setting [7]) is listed as 0. The “mean chromatographic area in plasma, T8” value in data set [1] (setting [8]) came to 0. In data set [1] (setting [9]), the “mean chromatographic area in plasma, T10” value was 0. Also, in data set [1] (setting [10]), the “AUC: area under the zero-moment curve” value is recorded as 259 ± 134 relative chromatographic area/h, the “Cmax: relative maximum plasma level” value is given as 202 ± 82 relative chromatographic area and the “observed Tmax: time required to reach Cmax” value (from here on “observed Tmax: time required”) is recorded as 1.2 ± 0.4 h.
On to `O=C(O)C=Cc1ccc(OS(=O)(=O)O)c(O)c1` (single isomer, unassigned; isomer 1) [caffeic acid 4-sulfate isomer 1, caffeic acid 4-sulfate], for which, in data set [1] (human, in vivo, po, 500 mg), the “AUC: area under the zero-moment curve” value is given as 1157 ± 757 relative chromatographic area/h, the “Cmax: relative maximum plasma level” value is given as 325 ± 147 relative chromatographic area and the “observed Tmax: time required” value turned out to be 3 ± 1 h. For the same compound, in data set [1] (in vivo), the “mean chromatographic area in plasma, T0.5” value turned out to be 21; the “mean chromatographic area in plasma, T1” value was determined as 89; the “mean chromatographic area in plasma, T2” value is listed as 280; the “mean chromatographic area in plasma, T4” value was found to be 177. In data set [1] (in vivo), the “mean chromatographic area in plasma, T6” value stood at 86; the “mean chromatographic area in plasma, T8” value was 67; the “mean chromatographic area in plasma, T10” value came out at 0.
Take `COc1cc(CCCO)ccc1OC1OC(CO)C(O)C(O)C1O` (single isomer, unassigned; isomer 1) [dihydroconiferin isomer 1, dihydroconiferin]: the “mean chromatographic area in plasma, T0.5” value in data set [1] (setting [3]) was determined as 44. The “mean chromatographic area in plasma, T1” value in data set [1] (setting [4]) came out at 137. The “mean chromatographic area in plasma, T2” value in data set [1] (setting [5]) worked out at 0. The “mean chromatographic area in plasma, T4” value in data set [1] (setting [6]) was found to be 0. Also, in data set [1] (setting [7]), the “mean chromatographic area in plasma, T6” value amounted to 0. The “mean chromatographic area in plasma, T8” value in data set [1] (setting [8]) turned out to be 0. For the same compound, the “mean chromatographic area in plasma, T10” value in data set [1] (setting [9]) is on record as 0. In data set [1] (setting [10]), the “AUC: area under the zero-moment curve” value is 126 ± 28 relative chromatographic area/h, the “Cmax: relative maximum plasma level” value is reported as 139 ± 19 relative chromatographic area and the “observed Tmax: time required” value stood at 0.9 ± 0.2 h.
As to `CC1=CC(=O)CC(C)(C)C1(O)/C=C/C(C)=C/COC1OC(CO)C(O)C(O)C1O` (single isomer, unassigned; isomer 2) [abscisic alcohol 11-glucoside isomer 2, abscisic alcohol 11-glucoside], the “mean chromatographic area in plasma, T0.5” value in data set [1] (setting [3]) worked out at 111. Further, the “mean chromatographic area in plasma, T1” value in data set [1] (setting [4]) stood at 519. Also, the “mean chromatographic area in plasma, T2” value in data set [1] (setting [5]) is 176. Besides, the “mean chromatographic area in plasma, T4” value in data set [1] (setting [6]) is 23. Besides, the “mean chromatographic area in plasma, T6” value in data set [1] (setting [7]) was found to be 0. The “mean chromatographic area in plasma, T8” value in data set [1] (setting [8]) was determined as 0. The “mean chromatographic area in plasma, T10” value in data set [1] (setting [9]) was determined as 0. Moreover, in data set [1] (setting [10]), the “AUC: area under the zero-moment curve” value is recorded as 757 ± 174 relative chromatographic area/h, the “Cmax: relative maximum plasma level” value was 562 ± 251 relative chromatographic area and the “observed Tmax: time required” value is given as 2 ± 1 h.
On to `O=C(O)C=Cc1ccc(OS(=O)(=O)O)c(O)c1` (single isomer, unassigned; isomer 2) [caffeic acid 4-sulfate isomer 2, caffeic acid 4-sulfate], for which, in data set [1] (human, in vivo, po, 500 mg), the “AUC: area under the zero-moment curve” value is on record as 1656 ± 1922 relative chromatographic area/h, the “Cmax: relative maximum plasma level” value is on record as 357 ± 268 relative chromatographic area and the “observed Tmax: time required” value was found to be 3 ± 2 h. In addition, in data set [1] (in vivo), the “mean chromatographic area in plasma, T0.5” value amounted to 0; the “mean chromatographic area in plasma, T1” value was 67; the “mean chromatographic area in plasma, T2” value is 277; the “mean chromatographic area in plasma, T4” value is listed as 266. In addition, in data set [1] (in vivo), the “mean chromatographic area in plasma, T6” value is reported as 189; the “mean chromatographic area in plasma, T8” value was determined as 129; the “mean chromatographic area in plasma, T10” value is reported as 22.
As to “homovanillyl alcohol glucuronide [homovanillyl alcohol glucuronide isomer 2]”, the “mean chromatographic area in plasma, T0.5” value in data set [2] (0.5 h after O. europaea extract, listed as homovanillic alcohol glucuronide isomer 2) was 242. In addition, the “mean chromatographic area in plasma, T1” value in data set [2] (1 h after O. europaea extract, listed as homovanillic alcohol glucuronide isomer 2) came to 677. The “mean chromatographic area in plasma, T2” value in data set [2] (2 h after O. europaea extract, listed as homovanillic alcohol glucuronide isomer 2) worked out at 704. Also, the “mean chromatographic area in plasma, T4” value in data set [2] (4 h after O. europaea extract, listed as homovanillic alcohol glucuronide isomer 2) is recorded as 365. For the same compound, the “mean chromatographic area in plasma, T6” value in data set [2] (6 h after O. europaea extract, listed as homovanillic alcohol glucuronide isomer 2) was 165. In data set [2] (8 h after O. europaea extract, listed as homovanillic alcohol glucuronide isomer 2), the “mean chromatographic area in plasma, T8” value is on record as 61. The “mean chromatographic area in plasma, T10” value in data set [2] (10 h after O. europaea extract) is listed as 0. For the same compound, in data set [2] (setting [11]), the “Cmax: relative maximum plasma level” value is on record as 735 ± 257 relative chromatographic area and the “observed Tmax: time required” value came out at 1.6 ± 0.5 h.
Turning to “hydroxytyrosol glucuronide [hydroxytyrosol glucuronide isomer 1]”, the “mean chromatographic area in plasma, T0.5” value in data set [2] (setting [12]) is 724. Also, in data set [2] (1 h after O. europaea extract), the “mean chromatographic area in plasma, T1” value worked out at 955. In addition, the “mean chromatographic area in plasma, T2” value in data set [2] (2 h after O. europaea extract) is given as 463. For the same compound, the “mean chromatographic area in plasma, T4” value in data set [2] (4 h after O. europaea extract) turned out to be 158. For the same compound, the “mean chromatographic area in plasma, T6” value in data set [2] (6 h after O. europaea extract) was 61. The “mean chromatographic area in plasma, T8” value in data set [2] (8 h after O. europaea extract) came out at 28. In addition, in data set [2] (10 h after O. europaea extract), the “mean chromatographic area in plasma, T10” value came to 0. In data set [2] (setting [11]), the “Cmax: relative maximum plasma level” value is reported as 1002 ± 411 relative chromatographic area and the “observed Tmax: time required” value is 0.9 ± 0.2 h.
For “hydroxytyrosol sulfate [hydroxytyrosol sulfate isomer 1]”, the “mean chromatographic area in plasma, T0.5” value in data set [2] (setting [12]) is on record as 280. Besides, the “mean chromatographic area in plasma, T1” value in data set [2] (1 h after O. europaea extract) was 323. Besides, the “mean chromatographic area in plasma, T2” value in data set [2] (2 h after O. europaea extract) is reported as 178. Besides, the “mean chromatographic area in plasma, T4” value in data set [2] (4 h after O. europaea extract) was determined as 328. Further, the “mean chromatographic area in plasma, T6” value in data set [2] (6 h after O. europaea extract) turned out to be 118. In addition, in data set [2] (8 h after O. europaea extract), the “mean chromatographic area in plasma, T8” value amounted to 202. For the same compound, the “mean chromatographic area in plasma, T10” value in data set [2] (10 h after O. europaea extract) is 45. Also, in data set [2] (setting [11]), the “Cmax: relative maximum plasma level” value was 593 ± 382 relative chromatographic area and the “observed Tmax: time required” value worked out at 3 ± 3 h.
For kaempferol sulfate, in data set [2] (human, in vivo, po, 500 mg), the “Cmax: relative maximum plasma level” value is listed as 172 ± 102 relative chromatographic area and the “observed Tmax: time required” value came out at 1.1 ± 0.3 h. Moreover, in data set [2] (in vivo), the “mean chromatographic area in plasma, T0.5” value was found to be 25; the “mean chromatographic area in plasma, T1” value is recorded as 165; the “mean chromatographic area in plasma, T2” value amounted to 59; the “mean chromatographic area in plasma, T4” value is 0. Besides, in data set [2] (in vivo), the “mean chromatographic area in plasma, T6” value is reported as 0; the “mean chromatographic area in plasma, T8” value turned out to be 0; the “mean chromatographic area in plasma, T10” value was 0.
In the case of “oleuropein aglycone glucuronide [oleuropein aglycone glucuronide isomer 1]”, in data set [2] (human, in vivo, po, 500 mg), the “Cmax: relative maximum plasma level” value is reported as 244 ± 128 relative chromatographic area and the “observed Tmax: time required” value was determined as 0.8 ± 0.2 h. Moreover, in data set [2] (in vivo), the “mean chromatographic area in plasma, T0.5” value was found to be 186; the “mean chromatographic area in plasma, T1” value came out at 202; the “mean chromatographic area in plasma, T2” value stood at 29; the “mean chromatographic area in plasma, T4” value is 0. In data set [2] (in vivo), the “mean chromatographic area in plasma, T6” value is 0; the “mean chromatographic area in plasma, T8” value was 0; the “mean chromatographic area in plasma, T10” value came to 0.
For “oleuropein aglycone glucuronide [oleuropein aglycone glucuronide isomer 2]”, the “observed Tmax: time required” value in data set [2] (human, in vivo, po, 500 mg) is listed as 0.9 ± 0.2 h. Also, in data set [2] (in vivo), the “mean chromatographic area in plasma, T1” value worked out at 482; the “mean chromatographic area in plasma, T2” value is recorded as 197; the “mean chromatographic area in plasma, T4” value stood at 24; the “mean chromatographic area in plasma, T6” value is 0. Further, in data set [2] (in vivo), the “mean chromatographic area in plasma, T8” value is given as 0 and the “mean chromatographic area in plasma, T10” value worked out at 0.
